We go through 2 compounds from PMC6237300, “Influenza B viruses circulated during last 5 years in Mongolia” (PLoS ONE, 2018).

pIC50: −log10 of the molar value.

The target of assay [1] is NA of B/Khentii/1137/2014 (G140R) (Influenza B virus, UniProt U5XBU0, G140R). Type of assay: biochemical.
Assay [2] concerns the target NA of B/Ulaanbaatar/1495/2014 (E105K) (Influenza B virus, UniProt U5XBU0, E105K). Type of assay: biochemical.
For assay [3], the target named is NA of B/Darkhan/1484/2014 (H101N, E105K) (Influenza B virus, UniProt U5XBU0, E105K/H101N). Type of assay: biochemical.
For assay [4], the target named is NA of B/Ulaanbaatar/1113/2014 (I114T) (Influenza B virus, UniProt U5XBU0, I114T). Type of assay: biochemical.
For assay [5], the system named is neuraminidase of the influenza B virus with H273Y mutation. The conditions noted are these: cited from earlier work.
The target of assay [6] is NA of B/Ulaanbaatar/1708/2014 (G104R) (Influenza B virus, UniProt U5XBU0, G104R). Format: biochemical.

For `[H]/N=C(\N)N[C@H]1C=C(C(=O)O)O[C@@H]([C@H](OC)[C@H](O)CO)[C@@H]1NC(C)=O` [Laninamivir, laninamivir], the susceptibility category entry in assay [1] is recorded as “sensitive”; in assay [2], “reduced susceptibility”; in assay [3], “reduced susceptibility”; in assay [4] it was “sensitive”.
Regarding `CCC(CC)[C@H](NC(C)=O)[C@@H]1[C@H](O)[C@@H](C(=O)O)C[C@H]1N=C(N)N` [Peramivir, peramivir], in assay [5], the “resistance of H273Y mutant” value is on record as “resistant”. For the same compound, the Fold increase in assay [1] was 10; in assay [2], 5000; in assay [3] it was 2500; in assay [4], 10; in assay [6] it was over 100000. Also, the pIC50 in assay [1] was 8.14; in assay [2], 5.48; in assay [3] it was 5.82; in assay [4], 7.93; in assay [6], 3.54. Also, the susceptibility category result in assay [1] is on record as “reduced susceptibility”; in assay [2] it was “highly reduced susceptibility”; in assay [3], “highly reduced susceptibility”; in assay [4], “reduced susceptibility”.

For orientation: pIC50 means −log10 of the IC50, conventionally taken in molar units.
